Reference: PubChem BioAssay (NCI)
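The compound was tested at five concentrations on cells cultured in 96-well plates, with a 48-hour exposure period. TGI: total growth inhibition.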

Tests used:
Experiment in all cases: NCI-60 cell line screen, 48 h
[1] = system: 786-0 renal
[2] = system: A498 renal
[3] = system: A549 NSCLC
[4] = system: ACHN renal
[5] = system: BT-549 breast
[6] = system: CAKI-1 renal
[7] = system: CCRF-CEM leukemia
[8] = system: COLO 205 colon
[9] = system: DU-145 prostate
[10] = system: EKVX NSCLC
[11] = system: HCC-2998 colon
[12] = system: HCT-116 colon
[13] = system: HCT-15 colon
[14] = system: HL-60(TB) leukemia
[15] = system: HOP-62 NSCLC
[16] = system: HOP-92 NSCLC
[17] = system: HS 578T breast
[18] = system: HT29 colon
[19] = system: IGROV1 ovarian
[20] = system: K-562 leukemia
[21] = system: KM12 colon
[22] = system: LOX IMVI melanoma
[23] = system: M14 melanoma
[24] = system: MALME-3M melanoma
[25] = system: MCF7 breast
[26] = system: MDA-MB-231 breast
[27] = system: MDA-MB-435
[28] = system: MDA-N
[29] = system: MOLT-4 leukemia
[30] = system: NCI-H226 lung
[31] = system: NCI-H23 lung
[32] = system: NCI-H460 lung
[33] = system: NCI-H522 lung
[34] = system: NCI/ADR-RES ovarian
[35] = system: OVCAR-3 ovarian
[36] = system: OVCAR-4 ovarian
[37] = system: OVCAR-5 ovarian
[38] = system: OVCAR-8 ovarian
[39] = system: PC-3 prostate
[40] = system: RPMI-8226 leukemia
[41] = system: RXF 393 renal
[42] = system: SF-268 CNS
[43] = system: SF-295 CNS
[44] = system: SF-539 CNS
[45] = system: SK-MEL-2 melanoma
[46] = system: SK-MEL-28 melanoma
[47] = system: SK-MEL-5 melanoma
[48] = system: SK-OV-3 ovarian
[49] = system: SN12C renal
[50] = system: SNB-19 CNS
[51] = system: SNB-75 CNS
[52] = system: SW-620 colon
[53] = system: T-47D breast
[54] = system: TK-10 renal
[55] = system: U251 CNS
[56] = system: UACC-257 melanoma
[57] = system: UACC-62 melanoma
[58] = system: UO-31 renal
[59] = system: SR leukemia

With `O=C(CC(=O)Nc1ccccc1Cl)NNC(Sc1ccccc1)c1cc(N=Nc2ccc(Br)cc2)ccc1O` (stereo unspecified) the TGI [1] was 2.42 µM, the TGI [2] was 5.6 µM and the TGI [3] was > 10 µM. The TGI [4] was > 10 µM, the TGI [5] was 5.99 µM and the TGI [6] was 7.19 µM. The TGI [7] was 6.21 µM, the TGI [8] was > 10 µM and the TGI [9] was > 10 µM. The TGI [10] was > 10 µM, the TGI [11] was > 10 µM and the TGI [12] was 1.31 µM. For the same compound, the TGI [13] was > 10 µM, the TGI [14] was 1.1 µM and the TGI [15] was 8.67 µM. The TGI [16] was 6.68 µM, the TGI [17] was 7.18 µM and the TGI [18] was > 10 µM. The TGI [19] was 5.53 µM, the TGI [20] was 6.63 µM and the TGI [21] was 5.04 µM. For the same compound, the TGI [22] was 3.15 µM, the TGI [23] was 2.68 µM and the TGI [24] was 8.73 µM. For the same compound, the TGI [25] was 3.22 µM, the TGI [26] was 8.68 µM and the TGI [27] was > 10 µM. For the same compound, the TGI [28] was > 10 µM, the TGI [29] was 1.75 µM and the TGI [30] was 6.04 µM. For the same compound, the TGI [31] was 7.39 µM, the TGI [32] was 2.86 µM and the TGI [33] was > 10 µM. For the same compound, the TGI [34] was 5.61 µM, the TGI [35] was 2.91 µM and the TGI [36] was 5.98 µM. The TGI [37] was > 10 µM, the TGI [38] was 2.39 µM and the TGI [39] was 6.21 µM. The TGI [40] was > 10 µM, the TGI [41] was 5.82 µM and the TGI [42] was > 10 µM. The TGI [43] was 8.39 µM, the TGI [44] was 3.8 µM and the TGI [45] was > 10 µM. The TGI [46] was > 10 µM, the TGI [47] was 3.95 µM and the TGI [48] was > 10 µM. The TGI [49] was > 10 µM, the TGI [50] was > 10 µM and the TGI [51] was > 10 µM. It also gave a TGI [52] of 2.77 µM, a TGI [53] of 9.57 µM and a TGI [54] of 9.08 µM. For the same compound, the TGI [55] was 8.26 µM, the TGI [56] was > 10 µM and the TGI [57] was 3.9 µM. It also gave a TGI [58] of 3.96 µM.

In the case of `S=C1CSc2c(cnc3ccccc23)N1`, the TGI [1] is reported as > 100 µM, the TGI [3] is reported as > 100 µM and the TGI [4] is reported as > 100 µM. The TGI [5] was > 100 µM, the TGI [6] was > 100 µM and the TGI [7] was > 100 µM. The TGI [8] was > 100 µM, the TGI [9] was > 100 µM and the TGI [10] was > 100 µM. For the same compound, the TGI [12] was > 100 µM, the TGI [13] was > 100 µM and the TGI [14] was > 100 µM. For the same compound, the TGI [15] was > 100 µM, the TGI [17] was > 100 µM and the TGI [18] was > 100 µM. The TGI [19] was > 100 µM, the TGI [20] was > 100 µM and the TGI [21] was > 100 µM. For the same compound, the TGI [22] was > 100 µM, the TGI [23] was > 100 µM and the TGI [24] was > 100 µM. For the same compound, the TGI [25] was > 100 µM, the TGI [26] was > 100 µM and the TGI [27] was > 100 µM. For the same compound, the TGI [28] was > 100 µM, the TGI [29] was > 100 µM and the TGI [30] was > 100 µM. The TGI [31] was > 100 µM, the TGI [32] was > 100 µM and the TGI [33] was > 100 µM. The TGI [34] was > 100 µM, the TGI [35] was > 100 µM and the TGI [36] was > 100 µM. For the same compound, the TGI [37] was > 100 µM, the TGI [38] was > 100 µM and the TGI [39] was > 100 µM. For the same compound, the TGI [40] was > 100 µM, the TGI [41] was > 100 µM and the TGI [42] was > 100 µM. The TGI [43] was > 100 µM, the TGI [46] was > 100 µM and the TGI [47] was > 100 µM. For the same compound, the TGI [48] was > 100 µM, the TGI [49] was > 100 µM and the TGI [50] was > 100 µM. For the same compound, the TGI [51] was > 100 µM, the TGI [59] was > 100 µM and the TGI [53] was > 100 µM. The TGI [54] was > 100 µM, the TGI [55] was > 100 µM and the TGI [56] was > 100 µM. The TGI [57] was > 100 µM and the TGI [58] was > 100 µM.

In the case of `Cc1nn(-c2ccccc2)c2c1N=C(C(=O)O)CC(c1ccccc1)=N2`, the TGI [1] is reported as > 10 µM, the TGI [3] is reported as > 10 µM and the TGI [4] is reported as > 10 µM. For the same compound, the TGI [5] was > 10 µM, the TGI [6] was > 10 µM and the TGI [8] was > 10 µM. For the same compound, the TGI [9] was > 10 µM, the TGI [11] was > 10 µM and the TGI [12] was > 10 µM. The TGI [13] was > 10 µM, the TGI [14] was > 10 µM and the TGI [15] was > 10 µM. The TGI [16] was > 10 µM, the TGI [17] was > 10 µM and the TGI [18] was > 10 µM. For the same compound, the TGI [19] was > 10 µM, the TGI [20] was > 10 µM and the TGI [21] was > 10 µM. For the same compound, the TGI [22] was > 10 µM, the TGI [23] was > 10 µM and the TGI [24] was > 10 µM. The TGI [25] was > 10 µM, the TGI [26] was > 10 µM and the TGI [27] was > 10 µM. The TGI [28] was > 10 µM, the TGI [29] was > 10 µM and the TGI [31] was > 10 µM. For the same compound, the TGI [33] was > 10 µM, the TGI [34] was > 10 µM and the TGI [35] was > 10 µM. For the same compound, the TGI [36] was > 10 µM, the TGI [38] was > 10 µM and the TGI [39] was > 10 µM. For the same compound, the TGI [40] was > 10 µM, the TGI [42] was > 10 µM and the TGI [43] was > 10 µM. The TGI [44] was > 10 µM, the TGI [46] was > 10 µM and the TGI [47] was > 10 µM. For the same compound, the TGI [48] was > 10 µM, the TGI [49] was > 10 µM and the TGI [50] was > 10 µM. The TGI [51] was > 10 µM, the TGI [59] was > 10 µM and the TGI [52] was > 10 µM. The TGI [53] was > 10 µM, the TGI [54] was > 10 µM and the TGI [55] was > 10 µM. The TGI [56] was > 10 µM and the TGI [57] was > 10 µM.

`Cc1csc2n(C)c(=O)c3ccccc3[n+]12` was tested, and the TGI [1] was > 100 µM, the TGI [3] was > 100 µM and the TGI [4] was > 100 µM. For the same compound, the TGI [5] was > 100 µM, the TGI [6] was > 100 µM and the TGI [7] was > 100 µM. The TGI [8] was > 100 µM, the TGI [9] was > 100 µM and the TGI [10] was > 100 µM. For the same compound, the TGI [11] was > 100 µM, the TGI [12] was > 100 µM and the TGI [13] was > 100 µM. For the same compound, the TGI [14] was > 100 µM, the TGI [15] was > 100 µM and the TGI [17] was > 100 µM. The TGI [18] was > 100 µM, the TGI [19] was > 100 µM and the TGI [20] was > 100 µM. For the same compound, the TGI [21] was > 100 µM, the TGI [22] was > 100 µM and the TGI [23] was > 100 µM. For the same compound, the TGI [25] was > 100 µM, the TGI [26] was > 100 µM and the TGI [27] was > 100 µM. For the same compound, the TGI [28] was > 100 µM, the TGI [29] was > 100 µM and the TGI [30] was > 100 µM. The TGI [31] was > 100 µM, the TGI [32] was > 100 µM and the TGI [33] was > 100 µM. The TGI [34] was > 100 µM, the TGI [35] was > 100 µM and the TGI [36] was > 100 µM. The TGI [37] was > 100 µM, the TGI [38] was > 100 µM and the TGI [39] was > 100 µM. The TGI [40] was > 100 µM, the TGI [41] was > 100 µM and the TGI [42] was > 100 µM. The TGI [43] was > 100 µM, the TGI [44] was > 100 µM and the TGI [45] was > 100 µM. For the same compound, the TGI [46] was > 100 µM, the TGI [47] was > 100 µM and the TGI [48] was > 100 µM. The TGI [49] was > 100 µM, the TGI [50] was > 100 µM and the TGI [59] was > 100 µM. For the same compound, the TGI [52] was > 100 µM, the TGI [53] was > 100 µM and the TGI [54] was > 100 µM. The TGI [55] was > 100 µM, the TGI [56] was > 100 µM and the TGI [57] was > 100 µM. The TGI [58] was > 100 µM.
